Reference: patent US20240199644A1, “Fused Ring Derivatives Useful as KRAS G12D Inhibitors” (JACOBIO PHARMACEUTICALS CO., LTD., priority 2021, published 2024)

What was measured:
[1] = target: GppNp-loaded HIS-KRAS(G12D, aa 1-169) / cRAF RBD (Homo sapiens (Human), UniProt P01116, G12D); assay: GTP-KRAS and cRAF interaction assay; format: biochemical; settings: HTRF; 2.0 nM GppNp-loaded HIS-KRAS(G12D), 35 nM cRAF RBD, 100 μM GTP, 2 hours at 25° C.
Protocol: GppNp-loaded HIS-KRAS(G12D, aa 1-169) was pre-incubated with a compound in the presence of 200 μM GTP in a 384-well plate (Greiner) for 15 min, then cRAF RBD(GST tag, aa 50-132, CreativeBioMart), MAb Anti GST-d2 (Cisbio) and MAb Anti 6HIS-Tb cryptate Gold (Cisbio) were added to the assay wells (Final concentration: 2.0 nM GppNp-loaded HIS-KRAS(G12D), 100 μM GTP, 35 nM cRAF RBD, 1 μg/mL MAb Anti GST-d2, 52.5 ng/mL MAb Anti 6HIS-Tb cryptate Gold) and incubated for 2 hours at 25° C. Wells containing same percent of DMSO served as vehicle control, and wells without KRAS served as low control. HTRF signals were read on Tecan Spark multimode microplate reader and HTRF ratios were calculated under manufacturer's instructions. The percent of activation of compounds treated wells were normalized between vehicle control and low control. Then the data were analyzed using a 4-parameter logistic model to calculate IC50 values.

[2] = target: GDP-loaded HIS-KRAS(G12D, aa 1-169) (Homo sapiens (Human), UniProt P01116, G12D); assay: SOS1 catalyzed nucleotide exchange assay; format: biochemical; settings: TR-FRET; 1.5 nM GDP-loaded HIS-KRAS(G12D), 0.5 μM SOS1 ExD, 4 hours at 25° C.
Protocol: GDP-loaded HIS-KRAS(G12D, aa 1-169) was pre-incubated with a compound in the presence of 10 nM GDP in a 384-well plate (Greiner) for 15 min, then purified SOS1 ExD(Flag tag, aa 564-1049), BODIPY™ FL GTP (Invitrogen) and MAb(monoclonal antibody) Anti 6HIS-Tb cryptate Gold (Cisbio) were added to the assay wells (Final concentration: 1.5 nM GDP-loaded HIS-KRAS(G12D), 5 nM GDP, 0.5 μM SOS1 ExD, 80 nM BODIPY™ FL GTP, 52.5 ng/mL MAb Anti 6HIS-Tb cryptate Gold) and incubated for 4 hours at 25° C. Wells containing same percent of DMSO served as vehicle control, and wells without KRAS served as low control. TR-FRET signals were read on Tecan Spark multimode microplate reader. The parameters were F486: Excitation 340 nm, Emission 486 nm, Lag time 100 μs, Integration time 200 μs; F515: Excitation 340 nm, Emission 515 nm, Lag time 100 μs, Integration time 200 μs. TR-FRET ratios for each individual wells were calculated by equation: TR-FRET ratio=(Signal F515/Signal F486)*10000. The percent of activation of compounds treated wells were normalizedbetween vehicle control and low control. Then the data were analyzed using a 4-parameter logistic model to calculate ICso values.

Chain of GppNp-loaded HIS-KRAS(G12D, aa 1-169) / cRAF RBD (P01116 other isoform, or with tags, fused parts or gaps G12D): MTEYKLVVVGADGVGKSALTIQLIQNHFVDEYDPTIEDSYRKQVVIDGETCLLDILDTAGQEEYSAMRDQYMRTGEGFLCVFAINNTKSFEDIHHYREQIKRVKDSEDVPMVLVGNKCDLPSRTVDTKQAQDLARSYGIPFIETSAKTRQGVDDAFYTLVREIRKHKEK
Chain of GDP-loaded HIS-KRAS(G12D, aa 1-169) (P01116 other isoform, or with tags, fused parts or gaps G12D): as above

Row | SMILES | IC50 [1] [nM] | IC50 [2] [nM]
1 | C#Cc1c(F)ccc2cc(O)cc(-c3nc4c5c(nc(OCC6(CN7CCOCC7)CC6)nc5c3F)N3C[C@H]5CC[C@H](N5)[C@H]3CO4)c12 [Compound 7] | 9.8 | 0.659
2 | C#Cc1c(F)ccc2cc(O)cc(-c3c(Cl)c4c5c(nc(OC[C@@]67CCCN6C[C@H](F)C7)nc5c3F)N3C[C@H]5CC[C@H](N5)[C@H]3CO4)c12 (atropisomer, axis not shown) [Compound 12] | 154 | 35.8
3 | C#Cc1c(F)ccc2cc(O)cc(-c3cc4c5c(nc(OCC6(CN7CCOCC7)CC6)nc5c3F)N3C[C@H]5CC[C@H](N5)[C@H]3CO4)c12 [Compound 14] | 9.2 | 1.15
4 | C#Cc1c(F)ccc2cc(O)cc(-c3cc4c5c(nc(OC[C@@]67CCCN6C[C@H](F)C7)nc5c3F)N3C[C@H]5CC[C@H](N5)[C@H]3CO4)c12 [Compound 10] | 5.4 | 0.452
5 | C#Cc1c(F)ccc2cc(O)cc(-c3nc4c5c(nc(OC[C@@]67CCCN6C[C@H](F)C7)nc5c3F)N3C[C@H]5CC[C@H](N5)[C@H]3CO4)c12 [Compound 6] | 3.9 | 0.23
6 | C#Cc1c(F)ccc2cc(O)cc(-c3nc4c5c(nc(OC[C@@]67CCCN6C[C@H](F)C7)nc5c3F)N3C[C@@H]5CC[C@@H](N5)[C@@H]3CO4)c12 [Compound 8] | 280 | 32.6
7 | C#Cc1cccc2cc(O)cc(-c3cc4c5c(nc(OCC6(CN7CCOCC7)CC6)nc5c3F)N3C[C@H]5CC[C@H](N5)[C@H]3CO4)c12 [Compound 5] | 20.5 | 1.16
8 | C#Cc1cccc2cc(O)cc(-c3cc4c5c(nc(OCC6(CN7CCOCC7)CC6)nc5c3F)N3[C@H]5CN[C@H](C5)[C@@H]3CO4)c12 [Compound 16] | 660 | 86.1
9 | CN(C)CC1(COc2nc3c4c(c(Cl)c(-c5cc(O)cc6ccccc56)cc4n2)OC[C@@H]2CNCCN32)CC1 [Compound 1] | 31400 | 3860
10 | C#Cc1c(F)ccc2cc(O)cc(-c3nc4c5c(nc(OC[C@@]67CCCN6C[C@H](F)C7)nc5c3F)N3C[C@@H]5CC[C@@H](N5)[C@H]3CO4)c12 [Compound 9] | 2240 | 81
11 | C#Cc1c(F)ccc2cc(O)cc(-c3c(Cl)c4c5c(nc(OC[C@@]67CCCN6C[C@H](F)C7)nc5c3F)N3C[C@H]5CC[C@H](N5)[C@H]3CO4)c12 (atropisomer, axis not shown) [Compound 13] | 4.8 | 0.691
12 | Oc1cc(-c2cc3nc(OC[C@@]45CCCN4C[C@H](F)C5)nc4c3c(c2Cl)OC[C@H]2CNCCN42)c2ccccc2c1 [Compound 3] | 11600 | 294
13 | C#Cc1cccc2cc(O)cc(-c3cc4c5c(nc(OCC6(CN7CCOCC7)CC6)nc5c3F)N3[C@@H]5CN[C@@H](C5)[C@@H]3CO4)c12 [Compound 15] | 251 | 11
14 | C#Cc1cccc2cc(O)cc(-c3cc4nc(OC[C@@]56CCCN5C[C@H](F)C6)nc5c4c(c3Cl)OC[C@@H]3[C@@H]4CC[C@H](CN53)N4)c12 [Compound 11] | 184 | 7.24
15 | CN(C)CC1(COc2nc3c4c(c(Cl)c(-c5cc(O)cc6ccccc56)cc4n2)OC[C@H]2CNCCN32)CC1 [Compound 2] | 23300 | 880
16 | C#Cc1cccc2cc(O)cc(-c3cc4c5c(nc(OCC6(CN7CCOCC7)CC6)nc5c3F)N3C[C@H]5CC[C@H](N5)[C@@H]3CO4)c12 [Compound 4] | 378 | 2.5
